Test results: article PMC9230645, “Discovery of GSK3β Inhibitors through In Silico Prediction-and-Experiment Cycling Strategy, and Biological Evaluation” (Molecules, 2022)

Assays:
GSK3β [1] = molecular target: T1, GSK3β (Homo sapiens, UniProt P49841); test: GSK3β kinase assay (TR-FRET / Lance HTRF); type: biochemical; details: for inhibition at 0.5 µM: 0.5 μM compound; for inhibition at 5 µM: 5 μM compound; for IC50: Table 1, means ± SD (n = 2)
T1 construct: purchased Carna Biosciences
Method: The GSK3β inhibitory activities of the virtually-selected 3000 compounds were screened by a Lance HTRF assay. At a concentration of 10 μM, the single-point screening signal-to-noise (S/N) ratio, Z factor, and Z’ factor of the assay was 7.3, 0.48 and 0.61, respectively.

Wnt/β-catenin signaling = test: HEK293 TOP flash reporter assay; type: cell-based; details: 5 µM, HEK293 TOP flash reporter cells, 18 h
Method: The pharmacologic inhibition of GSK3β’s activity can lead to β-catenin stabilization and subsequently activate Wnt/β-catenin signaling. To measure the inhibitory activities of the compounds selected in GSK3β enzyme-based high-throughput screening, these were treated in HEK293 TOP flash reporter cells at various concentrations.
The HEK293 reporter cells (HEK293 cells containing the chromosomally incorporated TOPflash gene) were provided by KY Choi (Yonsei University, Seoul, Korea). The HEK293 reporter cells were cultured in DMEM (Gibco) supplemented with 10% FBS (Gibco). To test the activates of GSK3β inhibition for hit compounds, HEK293 reporter cells were seeded into 96-well black polystyrene plates (Greiner Bio-One, Kremsmünster, Austria) at 1.5 × 10^4 cells per well and cultured for 24 h. Hit compounds, a positive control (CHIR99021, SelleckChem, Houston, TX, USA) or control (DMSO) were added to the wells at the indicated concentrations. After 18 h, the plates were assayed for firefly luciferase activity; relative reporter activity was determined after the data were normalized relative to the value of the WST-1 (Takara Korea Biomedical Inc., Seoul, Korea) cell viability analysis. Statistical analyses were performed using Prism 8 (GraphPad Software). […]

GSK3β [2] = molecular target: T1, GSK3β; test: Five-by-five-concentration kinetic analysis of GSK3β inhibition versus ATP (Lineweaver–Burk); type: biochemical
GSK3β [3] = molecular target: T1, GSK3β; test: Reversibility assay (dilution method); type: biochemical; details: pre-incubated with 1 µM for 30 min, then diluted
Method: Figure 3 In vitro assay. […] (b) Competitive inhibition by cpd1 and SB216873. Compounds were tested using 4-point 2-fold serial dilution, starting from 1 µM or 0.25 µM at 5 different concentration of ATP (200, 100, 50, 33.3, and 25 µM). (c) Reversibility test.
The in vitro enzyme TR-FRET (time-resolved fluorescence energy transfer) assays were performed in 384-well white plates (Greiner) at room temperature (25 °C) using an HTS system from Biomek FX (Beckman Coulter) and a Stella robot. The assay was performed in a final volume of 10 µL in a kinase buffer of 50 mM HEPES, pH 7.5, 1 mM EGTA, 10 mM MgCl2, 2 mM DTT, and 0.01% Tween-20. The 3000 virtually-selected compounds in the 5 mM DMSO stock were diluted into desired concentrations with kinase buffer. A total of 5 µL of GSK3β (Carna Biosciences, 0.5 ng/well) and 2.5 µL of compounds were added to the assay plates and, then, 2.5 µL of the ULight-GS Peptide (Ser641/pSer657, […](pS)ED, #TRF0131 PerkinElmer, 50 nM final concentration)/ATP mixture were added. […] After incubation for 1 h, the fluorescence signal was read in excitation at 320 nm with an emission at 665 nm with the Envision Multilabel Plate Reader (PerkinElmer). Experimental data from dose–response curves were analyzed by nonlinear regression analysis with GraphPad Prism, version 7.00 for Windows, and the IC50 values were obtained. […]

T1 sequence (P49841 whole entry): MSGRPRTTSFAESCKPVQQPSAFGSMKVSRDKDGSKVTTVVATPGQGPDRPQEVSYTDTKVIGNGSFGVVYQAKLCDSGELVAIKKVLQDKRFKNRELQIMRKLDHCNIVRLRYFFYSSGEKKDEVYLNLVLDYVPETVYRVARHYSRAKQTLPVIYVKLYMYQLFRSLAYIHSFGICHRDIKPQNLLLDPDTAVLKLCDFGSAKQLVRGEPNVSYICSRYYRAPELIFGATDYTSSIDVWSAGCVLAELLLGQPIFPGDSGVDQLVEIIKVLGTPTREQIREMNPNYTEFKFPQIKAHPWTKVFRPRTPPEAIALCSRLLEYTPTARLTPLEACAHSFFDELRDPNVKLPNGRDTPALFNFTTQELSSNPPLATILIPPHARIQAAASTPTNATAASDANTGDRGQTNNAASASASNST

inhibition at 0.5 µM (GSK3β [1]) [%]	inhibition at 5 µM (GSK3β [1]) [%]	Ki (GSK3β [2]; 5 ATP concentrations (200, 100, 50, 33.3, 25 µM), read-out: slope inhibition constant K is) [nM]	inhibition pattern of GSK3β-catalyzed phosphorylation (GSK3β [2]; versus ATP)	enzyme-binding reversibility (GSK3β [3])	IC50 (GSK3β [1]) [nM]	Compound	TOP flash activity induction (Wnt/β-catenin signaling) [fold]
61	100	–	–	–	–	Cn1cc(C2=C(c3ccc(Cl)cc3Cl)C(=O)NC2=O)c2ccccc21 [8 (SB216763), SB216763, reference compound]	–
100	100	41.8	competitive	reversible	37 ± 6	CCc1nccn1CCCNc1cc(-c2ccc(F)cc2)nc2ccnn12 [Compound 1, N-(3-(2-ethyl-1H-imidazol-1-yl)propyl)-5-(4-fluorophenyl)pyrazolo[1,5-a]pyrimidin-7-amine]	3.5
78	100	–	–	–	211 ± 55	Cc1nc[nH]c1CSCCNc1cc(-c2ccccc2)nc2ccnn12 [Compound 2]	–
57	96	–	–	–	347 ± 56	Cc1c(CNc2cc(-c3ccccc3F)nc3ccnn23)cnn1C [Compound 4]	–
38	95	–	–	–	701 ± 118	COCc1cc(NCc2nnn[nH]2)n2nccc2n1 [Compound 5]	–
45	91	–	–	–	730 ± 113	CCc1cc(NCc2scnc2-c2ccccc2)n2nccc2n1 [Compound 6]	–
30	90	–	–	–	1030 ± 66	Cc1cc(NCCCNc2cccnc2)n2nccc2n1 [Compound 7]	–
